Measurements published in ChEMBL document CHEMBL1135039, “A novel synthesis of 2-arylpyrrolo[1,2-a]pyrimid-7-ones and their structure-activity relationships as potent GnRH receptor antagonists” (Bioorg Med Chem Lett, 2002).

Target: T1, Gonadotropin-releasing hormone receptor (Homo sapiens, UniProt P30968)
T1 sequence (P30968 whole entry): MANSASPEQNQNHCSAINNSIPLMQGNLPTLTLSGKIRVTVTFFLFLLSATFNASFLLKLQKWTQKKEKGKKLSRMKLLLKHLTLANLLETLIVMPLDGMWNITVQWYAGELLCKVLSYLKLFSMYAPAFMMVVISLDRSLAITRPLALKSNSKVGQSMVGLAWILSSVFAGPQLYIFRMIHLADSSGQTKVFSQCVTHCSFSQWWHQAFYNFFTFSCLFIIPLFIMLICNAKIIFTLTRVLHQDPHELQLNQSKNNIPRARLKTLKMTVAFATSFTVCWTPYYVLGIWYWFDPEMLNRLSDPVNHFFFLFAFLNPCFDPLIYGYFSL
Assay: Binding affinity to human gonadotropin-releasing hormone (hGnRH) receptor expressed in HEK293 cells using des-Gly10[125I-Tyr,5DLeu,6NMeLeu,7Pro9-NEt]GnRH radioligand
Type: cell-based

Row | SMILES | Ki [nM]
1 | CCOC(=O)c1cn(Cc2ccccc2F)c2cc(-c3ccc(OC)cc3)c(CN(C)Cc3ccccc3)n2c1=O | 400
2 | CCCC(=O)Nc1ccc(-c2cc3n(Cc4ccccc4F)cc(C(=O)NC(CC)CC)c(=O)n3c2CN(C)CCc2ccccn2)cc1 | 21
3 | CCCC(=O)Nc1ccc(-c2cc3n(Cc4ccccc4F)cc(C(=O)OCC)c(=O)n3c2CN(C)CCc2ccccn2)cc1 | 1.2
4 | CCOC(=O)c1cn(Cc2ccccc2F)c2cc(-c3ccc([N+](=O)[O-])cc3)c(CN(C)Cc3ccccc3)n2c1=O | 450
5 | CCC(CC)OC(=O)c1cn(Cc2ccccc2F)c2cc(-c3ccc(NC(C)=O)cc3)c(CN(C)Cc3ccccc3)n2c1=O | 4
6 | CCC(CC)OC(=O)c1cn(Cc2ccccc2F)c2cc(-c3ccc(N)cc3)c(CN(C)Cc3ccccc3)n2c1=O | 100
7 | CCOC(=O)c1cn(Cc2ccccc2F)c2cc(-c3ccc(N)cc3)c(CN(C)Cc3ccccc3)n2c1=O | 190
8 | CCCC(=O)Nc1ccc(-c2cc3n(Cc4ccccc4F)cc(C(=O)NCCCc4ccccc4)c(=O)n3c2CN(C)CCc2ccccn2)cc1 | 1.1
9 | CCCC(=O)Nc1ccc(-c2cc3n(Cc4ccccc4F)cc(C(=O)NC4CCCCC4)c(=O)n3c2CN(C)CCc2ccccn2)cc1 | 32
10 | CCCCNC(=O)c1cn(Cc2ccccc2F)c2cc(-c3ccc(NC(=O)CCC)cc3)c(CN(C)CCc3ccccn3)n2c1=O | 10
11 | CCCC(=O)Nc1ccc(-c2cc3n(Cc4ccccc4F)cc(C(=O)OC(CC)CC)c(=O)n3c2CN(C)C)cc1 | 130
12 | CN(CCc1ccccn1)Cc1c(-c2ccc([N+](=O)[O-])cc2)cc2n(Cc3ccccc3F)cc(-c3nc(C(C)(C)C)co3)c(=O)n12 | 64
13 | CN(CCc1ccccn1)Cc1c(-c2ccc([N+](=O)[O-])cc2)cc2n(Cc3ccccc3F)cc(C3=NC(C)(C)CO3)c(=O)n12 | 270
14 | CCCCNC(=O)c1cn(Cc2ccccc2F)c2cc(-c3ccc(NC(=O)CCC)cc3)c(CN(C)CCN(CC)CC)n2c1=O | 440
15 | CCOC(=O)c1cn(Cc2ccccc2F)c2cc(-c3ccc(NC(C)=O)cc3)c(CN(C)Cc3ccccc3)n2c1=O | 42
16 | CCC(CC)OC(=O)c1cn(Cc2ccccc2F)c2cc(-c3ccc(NC(C)=O)cc3)c(CN(C)CCc3ccccn3)n2c1=O | 2.8
17 | CCOC(=O)c1cn(Cc2ccccc2F)c2cc(-c3ccc(OC)cc3)c(CN(C)CCc3ccccn3)n2c1=O | 55
18 | CCOC(=O)c1cn(Cc2ccccc2F)c2cc(-c3ccc(NC(=O)C(C)C)cc3)c(CN(C)CCc3ccccn3)n2c1=O | 14
19 | CCOC(=O)c1cn(Cc2ccccc2F)c2cc(-c3ccc(NC(=O)C(C)C)cc3)c(CN(C)Cc3ccccc3)n2c1=O | 44
20 | CCCC(=O)Nc1ccc(-c2cc3n(Cc4ccccc4F)cc(C(=O)OC(CC)CC)c(=O)n3c2CN(C)Cc2ccccc2)cc1 | 3.8
21 | CCC(CC)OC(=O)c1cn(Cc2ccccc2F)c2cc(-c3ccc(OC)cc3)c(CN(C)CCc3ccccn3)n2c1=O | 14
22 | CCC(CC)OC(=O)c1cn(Cc2ccccc2F)c2cc(-c3ccc(OC)cc3)c(CN(C)Cc3ccccc3)n2c1=O | 62
23 | CCCC(=O)Nc1ccc(-c2cc3n(Cc4ccccc4F)cc(C(=O)OC(CC)CC)c(=O)n3c2CN(C)CCc2ccccc2)cc1 | 2.1
24 | CCCCNC(=O)c1cn(Cc2ccccc2F)c2cc(-c3ccc(NC(=O)CCC)cc3)c(CN(C)Cc3ccccc3)n2c1=O | 154
25 | CCCC(=O)Nc1ccc(-c2cc3n(Cc4ccccc4F)cc(C(=O)NCCCc4ccccc4)c(=O)n3c2CN(C)Cc2ccccc2)cc1 | 17
26 | CCCCCCNC(=O)c1cn(Cc2ccccc2F)c2cc(-c3ccc(NC(=O)CCC)cc3)c(CN(C)CCc3ccccn3)n2c1=O | 3.3
27 | CCCC(=O)Nc1ccc(-c2cc3n(Cc4ccccc4F)cc(C(=O)OC(CC)CC)c(=O)n3c2CN(C)CCc2ccccn2)cc1 | 2.7
28 | CCCC(=O)Nc1ccc(-c2cc3n(Cc4ccccc4F)cc(C(=O)NC4CCCC4)c(=O)n3c2CN(C)CCc2ccccn2)cc1 | 9.2
29 | CCCC(=O)Nc1ccc(-c2cc3n(Cc4ccccc4F)cc(C(=O)NCCOC)c(=O)n3c2CN(C)CCc2ccccn2)cc1 | 630
30 | CCCC(=O)Nc1ccc(-c2cc3n(Cc4ccccc4F)cc(C(=O)OC(CC)CC)c(=O)n3c2CN(C)CCN(CC)CC)cc1 | 5.8
